Data: patent publication US20170190671A1, “BIS(ARYL)CATECHOL DERIVATIVES AS HERBICIDES” (E I DU PONT DE NEMOURS AND COMPANY, priority 2014, published 2017)

How the values were obtained:
[1] = test system: oilseed rape (Brassica napus); test: Test C preemergence; type: in vivo; settings: Brassica napus, pre-emergence, preemergence, scale 0 to 100, read-out: Plant response rating, Oilseed Rape
Summary of the method: (§1)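 Greenhouse test; preemergence to seeds in loam/sand soil, or postemergence spray to 2-18 cm, 1- to 4-leaf plants in peat/vermiculite medium; compound in non-phytotoxic solvent plus surfactant. Visual rating vs controls at 13-15 d, 0 = no effect, 100 = complete control.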

[2] = test system: morningglory (Ipomoea coccinea); test: Test C preemergence; type: in vivo; settings: Ipomoea, pre-emergence, 336 h, preemergence, scale 0 to 100, read-out: Plant response rating, Morningglory
Summary of the method: as §1

[3] = test system: galium (catchweed bedstraw, Galium aparine); test: Test C preemergence; type: in vivo; settings: Galium, pre-emergence, 336 h, preemergence, scale 0 to 100, read-out: Plant response rating, Galium
Summary of the method: as §1

[4] = test system: waterhemp (common waterhemp, Amaranthus rudis); test: Test C preemergence; type: in vivo; settings: Amaranthus tuberculatus, pre-emergence, preemergence, scale 0 to 100, read-out: Plant response rating, Waterhemp
Summary of the method: as §1

[5] = test system: winter wheat (Triticum aestivum); test: Test C postemergence; type: in vivo; settings: Triticum aestivum, post-emergence, 336 h, Postemergence, scale 0 to 100, read-out: Plant response rating, Wheat
Summary of the method: as §1

[6] = test system: johnsongrass (Sorghum halepense); test: Test C postemergence; type: in vivo; settings: Sorghum halepense, post-emergence, 336 h, Postemergence, scale 0 to 100, read-out: Plant response rating, Johnsongrass
Summary of the method: as §1

[7] = test system: ragweed (common ragweed, Ambrosia elatior); test: Test C postemergence; type: in vivo; settings: Ambrosia artemisiifolia, post-emergence, 336 h, Postemergence, scale 0 to 100, read-out: Plant response rating, Ragweed
Summary of the method: as §1

[8] = test system: Italian ryegrass (Lolium multiflorum); test: Test C postemergence; type: in vivo; settings: Lolium multiflorum, post-emergence, 336 h, Postemergence, scale 0 to 100, read-out: Plant response rating, Ryegrass, Italian
Summary of the method: as §1

kochia (Kochia scoparia) = test: Test C postemergence; type: in vivo; settings: Bassia scoparia, post-emergence, Postemergence, scale 0 to 100, read-out: Plant response rating, Kochia
Summary of the method: as §1

[9] = test system: barnyardgrass (Echinochloa crus-galli); test: Test C postemergence; type: in vivo; settings: Echinochloa crus-galli, post-emergence, Postemergence, scale 0 to 100, read-out: Plant response rating, Barnyardgrass
Summary of the method: as §1

[10] = test system: oilseed rape (Brassica napus); test: Test C postemergence; type: in vivo; settings: Brassica napus, post-emergence, Postemergence, scale 0 to 100, read-out: Plant response rating, Oilseed Rape
Summary of the method: as §1

[11] = test system: large (Lg) crabgrass (Digitaria sanguinalis); test: Test C postemergence; type: in vivo; settings: Digitaria sanguinalis, post-emergence, 336 h, Postemergence, scale 0 to 100, read-out: Plant response rating, Crabgrass, Large
Summary of the method: as §1

[12] = test system: lambsquarters (Chenopodium album); test: Test C postemergence; type: in vivo; settings: Chenopodium album, post-emergence, 336 h, Postemergence, scale 0 to 100, read-out: Plant response rating, Lambsquarters
Summary of the method: as §1

[13] = test system: yellow nutsedge (Cyperus esculentus); test: Test C postemergence; type: in vivo; settings: Cyperus, post-emergence, 336 h, Postemergence, scale 0 to 100, read-out: Plant response rating, Nutsedge, Yellow
Summary of the method: as §1

corn (Zea mays) = test: Test C postemergence; type: in vivo; settings: Zea mays, post-emergence, 336 h, Postemergence, scale 0 to 100
Summary of the method: as §1

[14] = test system: blackgrass (Alopecurus myosuroides); test: Test C postemergence; type: in vivo; settings: Alopecurus myosuroides, post-emergence, 336 h, Postemergence, scale 0 to 100, read-out: Plant response rating, Blackgrass
Summary of the method: as §1

soybean (Glycine max) = test: Test C postemergence; type: in vivo; settings: Glycine max, post-emergence, Postemergence, scale 0 to 100, read-out: Plant response rating, Soybean
Summary of the method: as §1

[15] = test system: chickweed (common chickweed, Stellaria media); test: Test C postemergence; type: in vivo; settings: Stellaria media, post-emergence, Postemergence, scale 0 to 100, read-out: Plant response rating, Chickweed
Summary of the method: as §1

[16] = test system: pigweed (Amaranthus retroflexus); test: Test C postemergence; type: in vivo; settings: Amaranthus retroflexus, post-emergence, 336 h, Postemergence, scale 0 to 100, read-out: Plant response rating, Pigweed
Summary of the method: as §1

wild oat (Avena fatua) = test: Test C postemergence; type: in vivo; settings: Avena fatua, post-emergence, Postemergence, scale 0 to 100, read-out: Plant response rating, Oat, Wild
Summary of the method: as §1

[17] = test system: waterhemp (common waterhemp, Amaranthus rudis); test: Test C postemergence; type: in vivo; settings: Amaranthus tuberculatus, post-emergence, Postemergence, scale 0 to 100, read-out: Plant response rating, Waterhemp
Summary of the method: as §1

[18] = test system: velvetleaf (Abutilon theophrasti); test: Test C postemergence; type: in vivo; settings: Abutilon theophrasti, post-emergence, Postemergence, scale 0 to 100, read-out: Plant response rating, Velvetleaf
Summary of the method: as §1

Fc1cnc(Oc2c(Br)cccc2Oc2ncc(Cl)cn2)nc1 [Compound 22]
plant injury at 31 g/ha ([1]; 31 g ai/ha): 85%
plant injury at 62 g/ha ([1]; 62 g ai/ha): 98%
plant injury at 125 g/ha ([1]; 125 g ai/ha): 100%
plant injury at 250 g/ha ([1]; 250 g ai/ha): 100%
pest or weed control at 31 g/ha ([2]; 31 g ai/ha): 0%
pest or weed control at 62 g/ha ([2]; 62 g ai/ha): 65%
pest or weed control at 125 g/ha ([2]; 125 g ai/ha): 95%
pest or weed control at 31 g/ha ([3]; 31 g ai/ha): 98%
pest or weed control at 62 g/ha ([3]; 62 g ai/ha): 100%
pest or weed control at 125 g/ha ([3]; 125 g ai/ha): 100%
pest or weed control at 31 g/ha ([4]; 31 g ai/ha): 100%
pest or weed control at 62 g/ha ([4]; 62 g ai/ha): 100%
pest or weed control at 125 g/ha ([4]; 125 g ai/ha): 100%
pest or weed control at 250 g/ha ([4]; 250 g ai/ha): 100%
plant injury at 31 g/ha ([5]; 31 g ai/ha): 0%
plant injury at 62 g/ha ([5]; 62 g ai/ha): 0%
plant injury at 125 g/ha ([5]; 125 g ai/ha): 0%
plant injury at 250 g/ha ([5]; 250 g ai/ha): 0%
pest or weed control at 31 g/ha ([6]; 31 g ai/ha): 0%
pest or weed control at 62 g/ha ([6]; 62 g ai/ha): 0%
pest or weed control at 125 g/ha ([6]; 125 g ai/ha): 5%
pest or weed control at 250 g/ha ([6]; 250 g ai/ha): 5%
pest or weed control at 31 g/ha ([7]; 31 g ai/ha): 30%
pest or weed control at 62 g/ha ([7]; 62 g ai/ha): 35%
pest or weed control at 125 g/ha ([7]; 125 g ai/ha): 90%
pest or weed control at 250 g/ha ([7]; 250 g ai/ha): 90%
pest or weed control at 31 g/ha ([8]; 31 g ai/ha): 0%
pest or weed control at 62 g/ha ([8]; 62 g ai/ha): 0%
pest or weed control at 125 g/ha ([8]; 125 g ai/ha): 5%
pest or weed control at 250 g/ha ([8]; 250 g ai/ha): 5%
pest or weed control at 31 g/ha (kochia (Kochia scoparia); 31 g ai/ha): 45%
pest or weed control at 62 g/ha (kochia (Kochia scoparia); 62 g ai/ha): 60%
pest or weed control at 125 g/ha (kochia (Kochia scoparia); 125 g ai/ha): 85%
pest or weed control at 250 g/ha (kochia (Kochia scoparia); 250 g ai/ha): 90%
pest or weed control at 31 g/ha ([9]; 31 g ai/ha): 5%
pest or weed control at 62 g/ha ([9]; 62 g ai/ha): 5%
pest or weed control at 125 g/ha ([9]; 125 g ai/ha): 15%
pest or weed control at 250 g/ha ([9]; 250 g ai/ha): 10%
plant injury at 31 g/ha ([10]; 31 g ai/ha): 40%
plant injury at 62 g/ha ([10]; 62 g ai/ha): 40%
plant injury at 125 g/ha ([10]; 125 g ai/ha): 60%
plant injury at 250 g/ha ([10]; 250 g ai/ha): 35%
pest or weed control at 31 g/ha ([11]; 31 g ai/ha): 5%
pest or weed control at 62 g/ha ([11]; 62 g ai/ha): 15%
pest or weed control at 125 g/ha ([11]; 125 g ai/ha): 25%
pest or weed control at 250 g/ha ([11]; 250 g ai/ha): 20%
pest or weed control at 31 g/ha ([12]; 31 g ai/ha): 70%
pest or weed control at 62 g/ha ([12]; 62 g ai/ha): 75%
pest or weed control at 125 g/ha ([12]; 125 g ai/ha): 95%
pest or weed control at 250 g/ha ([12]; 250 g ai/ha): 98%
pest or weed control at 31 g/ha ([13]; 31 g ai/ha): 5%
pest or weed control at 62 g/ha ([13]; 62 g ai/ha): 5%
pest or weed control at 125 g/ha ([13]; 125 g ai/ha): 10%
pest or weed control at 250 g/ha ([13]; 250 g ai/ha): 10%
Corn plant response rating (crop injury, 0 = no effect, 100 = complete kill) at 31 g/ha (corn (Zea mays); 31 g ai/ha): 5%
Corn plant response rating (crop injury, 0 = no effect, 100 = complete kill) at 62 g/ha (corn (Zea mays); 62 g ai/ha): 10%
Corn plant response rating (crop injury, 0 = no effect, 100 = complete kill) at 125 g/ha (corn (Zea mays); 125 g ai/ha): 10%
Corn plant response rating (crop injury, 0 = no effect, 100 = complete kill) at 250 g/ha (corn (Zea mays); 250 g ai/ha): 10%
pest or weed control at 31 g/ha ([14]; 31 g ai/ha): 5%
pest or weed control at 62 g/ha ([14]; 62 g ai/ha): 5%
pest or weed control at 125 g/ha ([14]; 125 g ai/ha): 5%
pest or weed control at 250 g/ha ([14]; 250 g ai/ha): 10%
plant injury at 31 g/ha (soybean (Glycine max); 31 g ai/ha): 40%
plant injury at 62 g/ha (soybean (Glycine max); 62 g ai/ha): 75%
plant injury at 125 g/ha (soybean (Glycine max); 125 g ai/ha): 90%
plant injury at 250 g/ha (soybean (Glycine max); 250 g ai/ha): 0%
pest or weed control at 31 g/ha ([15]; 31 g ai/ha): 50%
pest or weed control at 62 g/ha ([15]; 62 g ai/ha): 50%
pest or weed control at 125 g/ha ([15]; 125 g ai/ha): 55%
pest or weed control at 250 g/ha ([15]; 250 g ai/ha): 80%
pest or weed control at 31 g/ha ([16]; 31 g ai/ha): 75%
pest or weed control at 62 g/ha ([16]; 62 g ai/ha): 85%
pest or weed control at 125 g/ha ([16]; 125 g ai/ha): 90%
pest or weed control at 250 g/ha ([16]; 250 g ai/ha): 100%
pest or weed control at 31 g/ha (wild oat (Avena fatua); 31 g ai/ha): 0%
pest or weed control at 62 g/ha (wild oat (Avena fatua); 62 g ai/ha): 5%
pest or weed control at 125 g/ha (wild oat (Avena fatua); 125 g ai/ha): 10%
pest or weed control at 250 g/ha (wild oat (Avena fatua); 250 g ai/ha): 15%
pest or weed control at 31 g/ha ([17]; 31 g ai/ha): 70%
pest or weed control at 62 g/ha ([17]; 62 g ai/ha): 85%
pest or weed control at 125 g/ha ([17]; 125 g ai/ha): 95%
pest or weed control at 250 g/ha ([17]; 250 g ai/ha): 95%
pest or weed control at 31 g/ha ([18]; 31 g ai/ha): 30%
pest or weed control at 62 g/ha ([18]; 62 g ai/ha): 65%
pest or weed control at 125 g/ha ([18]; 125 g ai/ha): 70%
pest or weed control at 250 g/ha ([18]; 250 g ai/ha): 70%
melting point: 113 to 116 °C
